# According to patent publication US10428045B2, “Benzazepine compounds, conjugates, and uses thereof” (Silverback Therapeutics, Inc., priority 2017, dated 2019):
# Where a name gives a salt, the structure may show the parent alone.
# System: Human peripheral blood mononuclear cells (PBMC)
# Assay: PBMC screening assay, TNF-α in supernatant
# Assay type: cell-based
# Conditions: TNF-α in supernatant of human PBMC, 24 hours, ELISA or HTRF
# Experimental: Human peripheral blood mononuclear cells (PBMC) were obtained from BenTek, frozen at 25×10^6 cell/mL in 10% DMSO (Sigma) prepared in fetal bovine serum (Gibco) and stored in liquid nitrogen. For culture PBMC were thawed quickly in a 37° C. water bath and diluted into pre-warmed RPMI 1640 (Lonza) supplemented with 10% fetal bovine serum, 2 mM glutamine, 50 μg/mL penicillin, 50 U/mL streptomycin (all from Gibco) and centrifuged for 5 minutes at 500×g. PBMC were suspended into the growth media described above and cultured at a concentration of 1×10^6 cells per mL at 37° C. in a 5% CO2 incubator.
# PBMC were thawed, suspended at a concentration of 1×10^6 cell/mL in growth media and 200 μL was aliquoted into each well of a 96-well plate for a total of 0.2×10^6 cells per well. PBMC were incubated for 16-18 hours at 37° C. in a 5% CO2 humidified incubator. The following day PBMC plates were centrifuged at 500×g for 5 minutes and the growth media was removed. 150 μL of twelve concentrations ranging from 1000 to 0.000238 nM of small molecules prepared in growth media were added to PBMC in duplicate and incubated for 24 hours at 37° C. in a 5% CO2 incubator. Prior to supernatant harvest, cells were spun at 500×g for 5 minutes to remove cell debris. TNF-α activity was assessed in the supernatant by ELISA (eBioscience) or HTRF (CisBio) per the manufacturer's instructions. Optical density at 450 nm and 570 nm (ELISA) or luminescence (HTRF) was analyzed using an Envision (Perkin Elmer) plate reader, as shown in Table 5.
row,SMILES,EC50 [nM]
1,"CCCN(CCC)C(=O)C1=Cc2ccc(C(=O)Nc3ccc4c(c3)NCCC4)cc2N=C(N)C1 [Compound 1.1, 2-amino-N^4,N^4-dipropyl-N^8-(1,2,3,4-tetrahydroquinolin-7-yl)-3H-benzo[b]azepine-4,8-dicarboxamide]",< 500
2,"CCCN(CCC)C(=O)C1=Cc2ccc(C(=O)Nc3cccc(C(C)=O)c3)cc2N=C(N)C1 [Compound 1.2, N^8-(3-acetylphenyl)-2-amino-N^4,N^4-dipropyl-3H-benzo[b]azepine-4,8-dicarboxamide]",< 500
3,"CCCN(CCC)C(=O)C1=Cc2ccc(C(=O)NCc3cccnc3)cc2N=C(N)C1 [Compound 1.3, 2-amino-N^4,N^4-dipropyl-N^8-(pyridin-3-ylmethyl)-3H-benzo[b]azepine-4,8-dicarboxamide HCl salt]",< 500
4,"CCCN(CCC)C(=O)C1=Cc2ccc(C(=O)Nc3ccc4c(c3)C(=O)CCC4)cc2N=C(N)C1 [Compound 1.4, 2-amino-N^8-(8-oxo-5,6,7,8-tetrahydronaphthalen-2-yl)-N^4,N^4-dipropyl-3H-benzo[b]azepine-4,8-dicarboxamide trifluoroacetate salt]",< 500
5,"CCCN(CCC)C(=O)C1=Cc2ccc(C(=O)Nc3ccc4c(c3)CCCC4=O)cc2N=C(N)C1 [Compound 1.5, 2-amino-N^8-(5-oxo-5,6,7,8-tetrahydronaphthalen-2-yl)-N^4,N^4-dipropyl-3H-benzo[b]azepine-4,8-dicarboxamide trifluoroacetate salt]",< 500
6,"CCCN(CCC)C(=O)C1=Cc2ccc(C(=O)Nc3ccc4c(c3)C(O)CCC4)cc2N=C(N)C1 (stereo not shown) [Compound 1.7, 2-amino-N^8-(8-hydroxy-5,6,7,8-tetrahydronaphthalen-2-yl)-N4,N4-dipropyl-3H-benzo[b]azepine-4,8-dicarboxamide trifluoroacetate salt]",< 500
7,"CCCN(CCC)C(=O)C1=Cc2ccc(C(=O)Nc3ccc4c(c3)CCCN4)cc2N=C(N)C1 [Compound 1.12, 2-amino-N^4,N^4-dipropyl-N^8-(1,2,3,4-tetrahydroquinolin-6-yl)-3H-benzo[b]azepine-4,8-dicarboxamide trifluoroacetate salt]",< 500
8,"CCCN(CCC)C(=O)C1=Cc2ccc(C(=O)Nc3ccc4c(c3)CCNC4)cc2N=C(N)C1 [Compound 1.13, 2-amino-N^4,N^4-dipropyl-N^8-(1,2,3,4-tetrahydroisoquinolin-6-yl)-3H-benzo[b]azepine-4,8-dicarboxamide trifluoroacetate salt]",< 500
9,"CCCN(CCC)C(=O)C1=Cc2ccc(C(=O)Nc3ccc4c(c3)CNCC4)cc2N=C(N)C1 [Compound 1.14, 2-amino-N^4,N^4-dipropyl-N^8-(1,2,3,4-tetrahydro-isoquinolin-7-yl)-3H-benzo[b]azepine-4,8-dicarboxamide trifluoroacetate salt]",< 500
10,"CCCN(CCC)C(=O)C1=Cc2ccc(C(=O)N[C@@H](C)c3ccccc3)cc2N=C(N)C1 [Compound 1.21, (S)-2-amino-N^8-(1-phenylethyl)-N^4,N^4-dipropyl-3H-benzo[b]azepine-4,8-dicarboxamide trifluoroacetate salt]",< 500
11,"CCCN(CCC)C(=O)C1=Cc2ccc(C(=O)N[C@H](C)c3ccccc3)cc2N=C(N)C1 [Compound 1.22, (R)-2-amino-N^8-(1-phenylethyl)-N^4,N^4-dipropyl-3H-benzo[b]azepine-4,8-dicarboxamide trifluoroacetate salt]",< 500
12,"CCCN(CCC)C(=O)C1=Cc2ccc(C(=O)NC3CCc4ccccc43)cc2N=C(N)C1 (stereo not shown) [Compound 1.23, 2-amino-N^8-(2,3-dihydro-1H-inden-1-yl)-N^4,N^4-dipropyl-3H-benzo[b]azepine-4,8-dicarboxamide trifluoroacetate salt]",< 500
13,"CCCN(CCC)C(=O)C1=Cc2ccc(C(=O)N3CCc4ccccc4C3)cc2N=C(N)C1 [Compound 1.24, 2-amino-N,N-dipropyl-8-(1,2,3,4-tetrahydroisoquinoline-2-carbonyl)-3H-benzo[b]azepine-4-carboxamide trifluoroacetate salt]",< 500
